# Laboratory results reported in US8029980B2, “Identification and use of agents that modulate oncogenic transcription agent activity” (The Board of Trustees of the University of Illinois, priority 2006, dated 2011).
# How the values were obtained:
# FoxM1 [1] = target: T1, FoxM1 (Homo sapiens, UniProt Q08050); test: FoxM1-responsive firefly luciferase reporter assay in C3-Luc cells; assay type: cell-based; details: C3-Luc cells
# T1 construct: expressed in transfected cells; host or cells: U2OS clone C3 / C3-Luc
# T1 sequence (Q08050 1-748 isoform Q08050-2): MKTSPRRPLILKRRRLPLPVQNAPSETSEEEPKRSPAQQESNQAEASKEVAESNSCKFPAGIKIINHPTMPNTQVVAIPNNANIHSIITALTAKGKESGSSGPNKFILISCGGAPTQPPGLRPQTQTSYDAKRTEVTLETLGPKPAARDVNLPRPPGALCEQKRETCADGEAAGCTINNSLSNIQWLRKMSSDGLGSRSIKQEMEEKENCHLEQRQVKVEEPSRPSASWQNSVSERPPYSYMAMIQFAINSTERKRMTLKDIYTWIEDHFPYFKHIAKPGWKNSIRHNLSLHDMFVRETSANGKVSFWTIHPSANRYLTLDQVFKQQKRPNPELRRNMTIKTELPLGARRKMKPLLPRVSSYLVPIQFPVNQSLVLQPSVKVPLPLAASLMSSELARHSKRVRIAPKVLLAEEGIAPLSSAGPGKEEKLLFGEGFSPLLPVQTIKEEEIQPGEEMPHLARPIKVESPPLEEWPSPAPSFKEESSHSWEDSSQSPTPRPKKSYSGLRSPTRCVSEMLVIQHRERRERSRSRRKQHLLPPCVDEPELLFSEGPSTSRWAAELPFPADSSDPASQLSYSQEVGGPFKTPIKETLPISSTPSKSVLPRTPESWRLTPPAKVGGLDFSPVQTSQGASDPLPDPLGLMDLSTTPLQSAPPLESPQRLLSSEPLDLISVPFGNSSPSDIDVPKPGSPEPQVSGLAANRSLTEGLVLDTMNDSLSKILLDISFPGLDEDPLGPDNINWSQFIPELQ
# Experimental: (§1) FIG. 6. Thiostrepton and Siomycin A both inhibit FoxM1 transcriptional activity. […] The next day, the luciferase activity was measured with the Dual-Luciferase reporter assay system (E1910; Promega) according to the manufacturer's instructions.
# (§2) The development of U2OS clone C3 cell line with doxycyclin inducible FoxM1-GFP fusion protein has been described before (17). This cell line was transfected with a plasmid expressing firefly luciferase under the control of 6× FoxM1 responsive (FoxRE) promoter (17), along with pcDNA3.1 (Invitrogen, Carlsbad, Calif.) plasmid that expresses neomycin phospho-transferase. […] This clone was further transfected with pRL-CMV (Promega) that expresses renilla luciferase along with pLPCX-puro (Clontech), and the cells were selected in 2 μg/ml puromycin. This cell line which expresses FoxM1-dependent firefly luciferase and constitutive renilla luciferase was named as C3-Luc and used for the screening of compound libraries (Challenge set and Diversity set) from the National Cancer Institute.
# (§3) For high-throughput screening, the C3-Luc cells were grown in 96-well plates and treated overnight with a combination of 1 μg/ml doxycycline and 10 μM of compounds from the library. Next day, the firefly and renilla luciferase activities were measured with the Dual Glo system (E2940; Promega).
# (§4) For the other luciferase assay experiments, the cells were treated as indicated in the FIG. 1 legend and the luciferase activity was measured using the Dual Luciferase reporter assay system (E1910; Promega) according to the manufacturer's instructions.
# FoxM1 [2] = test: as above; assay type: cell-based, human; details: C3-Luc cells without doxycycline induction, increasing concentration
# Experimental: as §1, §2, §3, §4
smiles,measurement,setting,value
C=C(NC(=O)C(=C)NC(=O)c1csc(C2=N[C@@H]3c4csc(n4)[C@H]4NC(=O)c5csc(n5)[C@H]([C@](C)(O)[C@@H](C)O)NC(=O)[C@H]5CSC(=N5)/C(=C/C)NC(=O)[C@H]([C@@H](C)O)NC(=O)c5csc(n5)[C@]3(CC2)NC(=O)[C@H](C)NC(=O)C(=C)NC(=O)C(=C)NC(=O)[C@H](C(C)C)N[C@@H]2C=Cc3c([C@H](C)O)cc(nc3[C@H]2O)C(=O)O[C@@H]4C)n1)C(N)=O [Siomycin A],relative firefly luciferase activity (FoxM1 transcriptional activity),"FoxM1 [1]; 1 μg/mL doxycycline (60-fold induction), 5 μM compound, 24 hrs",efficiently reduced the value to basal levels
same,relative firefly luciferase activity (exogenous FoxM1 transcriptional activity),"FoxM1 [1]; 1 μg/ml doxycycline induction (~16-fold), 10 μM compound, overnight",efficiently reduced the value to basal levels
same,firefly luciferase activity conferred by the FoxM1-responsive promoter (endogenous FoxM1),FoxM1 [2],dose-dependent decrease
